Measured values from patent US20210052741A1, “GENE THERAPY METHODS AND COMPOSITIONS USING AUXOTROPHIC REGULATABLE CELLS” (AUXOLYTIC LTD, priority 2018, published 2021).
Values joined by “and” are separate entries in the source; they are usually repeats but may differ in a detail not shown here. Equal values may be shown once.

Legend:
[1] = test system: UMPS^KO/KO Nalm6 cells; assay: Growth curves of Nalm6 cells with uridine; type: cell-based, human; conditions: for Cell counts, Day 0 / Cell counts, Day 1 / Cell counts, Day 2 / Cell counts, Day 3 / Cell counts, Day 4 / Cell counts, Day 5 / Cell counts, Day 6 / Cell counts, Day 7: UMPS^KO/KO
Method: (§1) The same experiment was performed with Nalm6 cells and a similar dependency on the uridine concentration in the culture was observed that was not visible for cells with intact UMPS. Table 25 provides data of growth curves of UMPS^KO/KO Nalm6 cells cultured with different uridine concentrations. No difference was observed between the groups receiving uridine supplement treatment and those not for wild-type cells.

[2] = test system: UMPS-WT Nalm6 cells; assay: Growth curves of Nalm6 cells with uridine; type: cell-based, human; conditions: for Cell counts, Day 0 / Cell counts, Day 1 / Cell counts, Day 2 / Cell counts, Day 3 / Cell counts, Day 4 / Cell counts, Day 5 / Cell counts, Day 6 / Cell counts, Day 7: UMPS-WT
Method: as §1

O=c1ccn([C@@H]2O[C@H](CO)[C@@H](O)[C@H]2O)c(=O)[nH]1 [Uridine]
Cell counts, Day 0 ([1]; 2.5 μg/ml uridine): 20121 and 29155 and 28090 | Cell counts, Day 1 ([1]; 2.5 μg/ml uridine): 42194 and 38023 and 40650 | Cell counts, Day 2 ([1]; 2.5 μg/ml uridine): 69808 and 88300 and 87146 | Cell counts, Day 3 ([1]; 2.5 μg/ml uridine): 70287 and 70547 and 78663 | Cell counts, Day 4 ([1]; 2.5 μg/ml uridine): 80625 and 81737 and 79012 | Cell counts, Day 5 ([1]; 2.5 μg/ml uridine): 193482 and 188952 and 193913 | Cell counts, Day 6 ([1]; 2.5 μg/ml uridine): 380782 and 383866 and 377748 | Cell counts, Day 7 ([1]; 2.5 μg/ml uridine): 755497 and 796763 and 793429 | Cell counts, Day 0 ([1]; 25 μg/ml uridine): 14984 and 18952 and 14400 | Cell counts, Day 1 ([1]; 25 μg/ml uridine): 21277 and 25189 and 19688 | Cell counts, Day 2 ([1]; 25 μg/ml uridine): 69085 and 68027 and 71301 | Cell counts, Day 3 ([1]; 25 μg/ml uridine): 142944 and 176018 and 189125 | Cell counts, Day 4 ([1]; 25 μg/ml uridine): 388585 and 324708 and 395062 | Cell counts, Day 5 ([1]; 25 μg/ml uridine): 1624178 and 1360329 | Cell counts, Day 6 ([1]; 25 μg/ml uridine): 3646724 and 3386243 and 3792593 | Cell counts, Day 7 ([1]; 25 μg/ml uridine): 7293447 and 5746352 and 6538953 | Cell counts, Day 0 ([1]; 250 μg/ml uridine): 20704 and 24510 and 29762 | Cell counts, Day 1 ([1]; 250 μg/ml uridine): 37175 and 35461 and 30769 | Cell counts, Day 2 ([1]; 250 μg/ml uridine): 101781 and 106667 and 112045 | Cell counts, Day 3 ([1]; 250 μg/ml uridine): 210805 and 265340 and 257649 | Cell counts, Day 4 ([1]; 250 μg/ml uridine): 551249 and 564374 | Cell counts, Day 5 ([1]; 250 μg/ml uridine): 2072099 and 2343280 and 1844675 | Cell counts, Day 6 ([1]; 250 μg/ml uridine): 3792593 and 4514991 and 4122383 | Cell counts, Day 7 ([1]; 250 μg/ml uridine): 7585185 and 6320988 and 7901235 | growth ([1]; groups supplemented with uridine, especially 25 and 250 μg/ml): Significantly greater growth | Cell counts, Day 0 ([2]; 2.5 ug/ml uridine): 20052 and 19661 and 21142 | Cell counts, Day 1 ([2]; 2.5 ug/ml uridine): 35088 and 34130 and 28986 | Cell counts, Day 2 ([2]; 2.5 ug/ml uridine): 67340 and 38314 and 62598 | Cell counts, Day 3 ([2]; 2.5 ug/ml uridine): 156019 and 153257 and 137812 | Cell counts, Day 4 ([2]; 2.5 ug/ml uridine): 244368 and 225750 and 338624 | Cell counts, Day 5 ([2]; 2.5 ug/ml uridine): 923391 and 1119256 and 1148582 | Cell counts, Day 6 ([2]; 2.5 ug/ml uridine): 2017336 and 3269476 | Cell counts, Day 7 ([2]; 2.5 ug/ml uridine): 3869992 and 6117085 and 6538953 | Cell counts, Day 0 ([2]; 25 μg/ml uridine): 27548 and 19505 and 36496 | Cell counts, Day 1 ([2]; 25 μg/ml uridine): 31847 and 39683 and 40000 | Cell counts, Day 2 ([2]; 25 μg/ml uridine): 70922 and 70175 and 68027 | Cell counts, Day 3 ([2]; 25 μg/ml uridine): 214190 and 194185 and 174292 | Cell counts, Day 4 ([2]; 25 μg/ml uridine): 447240 and 311891 and 376249 | Cell counts, Day 5 ([2]; 25 μg/ml uridine): 1413856 and 1173622 and 1216000 | Cell counts, Day 6 ([2]; 25 μg/ml uridine): 3792593 and 2708995 | Cell counts, Day 7 ([2]; 25 μg/ml uridine): 6320988 and 5746352 and 7585185 | Cell counts, Day 0 ([2]; 250 μg/ml uridine): 17980 and 24390 | Cell counts, Day 1 ([2]; 250 μg/ml uridine): 33784 and 40000 | Cell counts, Day 2 ([2]; 250 μg/ml uridine): 59524 and 58737 | Cell counts, Day 3 ([2]; 250 μg/ml uridine): 167715 and 160160 | Cell counts, Day 4 ([2]; 250 μg/ml uridine): 303894 and 213547 | Cell counts, Day 5 ([2]; 250 μg/ml uridine): 1163678 and 1115507 | Cell counts, Day 6 ([2]; 250 μg/ml uridine): 3511660 and 3058542 | Cell counts, Day 7 ([2]; 250 μg/ml uridine): 7293447 | growth with vs without uridine supplement ([2]; wild-type cells): No difference
